According to patent US6413951B2, “20-fluoro-17(20)-vinyl steroids” (Aventis Pharmaceuticals, Inc., priority 2000, dated 2002):

How the values were obtained:
[1] = test system: cynomologous monkey C17,20 lyase; test: In vitro C17,20 lyase assay (testicular microsomes); format: biochemical, cynomolgus monkey; set-up: unit of the concentration uncertain
Description: In vitro C17,20 lyase assay: Compounds were tested for inhibition of cynomologous monkey C17,20 lyase in vitro using microsomal preparations of the enzyme from testicular tissue. Testes were removed from anesthetized animals and flash frozen in liquid nitrogen. Microsomes were isolated as described in Schatzman et al., Anal. Biochem., 175, 219-226 (1988). The compound to be tested was dissolved in DMSO and diluted in 0.05M potassium phosphate buffer, pH 7.4, to give the desired concentrations of test compound, in an amount which contributes 0.1% v/v DMSO to the total assay volume. […] Control assays contained all components, including DMSO, but no test compound. All assays were performed in duplicate. […] The complete assay was incubated at 34° C. for 6 minutes. […] Radioactivity in the steriod peaks was measured using a Radiometric Model HS or Model A515 Flo-One detector. The enzyme activity for each assay was calculated from the conversion of substrate to products, and. the results expressed as percent inhibition of control.

human 5α-reductase = target: T1, human 5α-reductase (Homo sapiens, UniProt P31213); test: In vitro 5α-reductase assay (prostate microsomes), human; format: biochemical; conditions: read-out: Km values of testosterone, multiple experiments
T1 construct: microsomal preparations of the 5α-reductase enzyme from human or laboratory animal prostate tissue; from tissue; host or cells: human prostate, microsomes
T1 sequence (P31213 1-254): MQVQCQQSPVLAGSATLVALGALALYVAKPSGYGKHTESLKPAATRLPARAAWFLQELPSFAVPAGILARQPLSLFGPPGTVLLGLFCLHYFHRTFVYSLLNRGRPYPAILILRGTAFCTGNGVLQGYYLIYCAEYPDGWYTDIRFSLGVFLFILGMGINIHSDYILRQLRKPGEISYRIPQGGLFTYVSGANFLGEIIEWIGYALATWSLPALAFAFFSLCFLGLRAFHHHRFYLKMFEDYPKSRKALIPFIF
Description: (§1) In vitro 5α-reductase assay: The activity of the present compounds as inhibitors of steroid 5α-reductase was determined using microsomal preparations of the 5α-reductase enzyme from human or laboratory animal prostate tissue. Specifically, prostate tissue was rapidly frozen in liquid nitrogen following removal from the human patient or from a cynomologus monkey (Macaca fascicularis) and subsequently stored at −80° C. The tissue was thawed, minced, and then homogenized in 5 volumes of 0.05M potassium phosphate buffer, pH 7.0, using a Tekmar homogenizer with 3×5 second bursts, followed by 10 strokes in a Dounce homogenizer. The homogenate was sonified in three pulses of 5 seconds each at 50% of maximum power. The homogenate was subjected to differential centrifugation with each supernatant successively centrifuged at 600×G and […] in a Beckman J21 centrifuge followed by 120,000×G in a Beckman Model L5-75 ultracentrifuge. The final pellet, containing the microsomal fraction, was reserved and resuspended in 0.05M potassium phosphate buffer, pH 7.0, containing 25% (w/v) glycerol equal to 1 mL per 3 g wet tissue. The suspension was divided into aliquots, flash frozen using dry ice in methanol, and stored at −80° C. […] Protein concentration was determined by the BioRad dye binding method (BioRad, Richmond, Calif., USA). […]

[2] = test system: cynomolgus monkey 5α-reductase; conditions: read-out: Km values of testosterone, multiple experiments
Description: as §1

rat 5α-reductase = conditions: read-out: Km values of testosterone, multiple experiments
[3] = Conc. 1 (unit uncertain), Preinc. 0 min
[4] = Conc. 1 (unit uncertain), Preinc. 40 min
[5] = Conc. 10 (unit uncertain), Preinc. 0 min
[6] = Conc. 10 (unit uncertain), Preinc. 40 min

C[C@]12CC[C@H](O)CC1=CC[C@@H]1[C@@H]2CC[C@]2(C)/C(=C(/F)CO)CC[C@@H]12 [E CH2OH, (17E)-20-Fluoropregna-5,17(20)-diene-3β,21-diol]
% Inhibition [1, 3]: 63% | % Inhibition [1, 4]: 61% | % Inhibition [1, 5]: 85% | % Inhibition [1, 6]: 87% | melting point: 214 to 216 °C

C/C(F)=C1/CC[C@H]2[C@@H]3CC=C4C[C@@H](O)CC[C@]4(C)[C@H]3CC[C@]12C [E CH3, (17E)-20-fluoropregna-5,17(20)-dien-3β-ol]
% Inhibition [1, 3]: 54% | % Inhibition [1, 4]: 60% | % Inhibition [1, 5]: 88% | % Inhibition [1, 6]: 94% | melting point: 129 to 133 °C

C[C@]12CC[C@H](O)CC1=CC[C@@H]1[C@@H]2CC[C@]2(C)/C(=C(\F)CO)CC[C@@H]12 [Z CH2OH, (17Z)-20-Fluoropregna-5,17(20)-diene-3β,21-diol]
% Inhibition [1, 3]: 96% | % Inhibition [1, 4]: 94% | % Inhibition [1, 5]: 100% | % Inhibition [1, 6]: 100% | melting point: 198 to 203 °C

C/C(F)=C1\CC[C@H]2[C@@H]3CC=C4C[C@@H](O)CC[C@]4(C)[C@H]3CC[C@]12C [Z CH3, (17Z)-20-Fluoropregna-5,17(20)-dien-3β-ol]
% Inhibition [1, 3]: 49% | % Inhibition [1, 4]: 72% | % Inhibition [1, 5]: 78% | % Inhibition [1, 6]: 94% | melting point: 153 to 155 °C

C[C@]12CC[C@H]3[C@@H](CCC4=CC(=O)CC[C@@]43C)[C@@H]1CC[C@@H]2O [testosterone, 17β-hydroxyandrost-4-en-3-one]
Km (human 5α-reductase): 0.125 to 0.273 µM | Km [2]: 0.025 to 0.091 µM | Km (rat 5α-reductase): 0.74 to 0.9 µM
